Reference: the supplement of paper PMC9262897, “Low-cost anti-mycobacterial drug discovery using engineered E. coli” (Nature Communications, 2022)

How the values were obtained:
[1] = test system: E. coli wild-type control; test: growth (OD600 after 10 h); higher = more growth
Procedure: (§1)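 Chemical-genetic validation profiles: TESEC strains (Mtb Asd or DapB, arabinose-inducible) or the wild-type control grown in a two-dimensional dilution series of drug (µM) and arabinose. Growth is read as OD600 after 10 h in triplicate.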

[2] = test system: E. coli TESEC strain (Mtb target enzyme); test: growth (OD600 after 10 h); higher = more growth
Procedure: as §1

∆mdtM = test: growth (OD600 after 24 h); higher = more growth
Procedure: (§2)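 E. coli BW25113 ΔaraC (Efflux+) or efflux-pump deletion strains (ΔtolC ΔentC, ΔemrE, ΔmdtI, ΔyeeO, ΔmdtK, ΔmdtM) diluted 1:100 in M9-based medium with a drug dilution series. Growth is read as OD600 after 24 h; 3 biological replicates.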

∆tolC ∆entC = test: growth (OD600 after 24 h); higher = more growth
Procedure: as §2

∆mdtI = test: growth (OD600 after 24 h); higher = more growth
Procedure: as §2

Efflux+ = test: growth (OD600 after 24 h); higher = more growth
Procedure: as §2

∆emrE = test: growth (OD600 after 24 h); higher = more growth
Procedure: as §2

∆mdtK = test: growth (OD600 after 24 h); higher = more growth
Procedure: as §2

∆yeeO = test: growth (OD600 after 24 h); higher = more growth
Procedure: as §2

CN(Cc1cc(Br)cc(Br)c1N)C1CCCCC1 [Bromhexine] (TESEC target enzyme: Mtb Asd)
growth
Conditions	drug 0.3 µM	drug 0.8 µM	drug 1.7 µM	drug 3.9 µM	drug 8.8 µM	drug 19.8 µM	drug 44.4 µM
[1], arabinose 15560 nM	0.134	0.163	0.156	0.16	0.172	0.162	–
[1], arabinose 28008 nM	0.149	0.159	0.162	0.172	0.164	0.1736	–
[1], arabinose 50414 nM	0.17	0.144	0.17	0.16	0.157	0.172	–
[1], arabinose 90744 nM	0.167	0.21	0.174	0.193	0.178	0.177	–
[1], arabinose 163340 nM	0.157	0.178	0.161	0.187	0.146	0.194	–
[1], arabinose 294012 nM	0.156	0.191	0.204	0.229	0.182	0.198	–
[1], arabinose 529221 nM	0.18	0.202	0.201	0.194	0.186	0.221	–
[1], arabinose 952599 nM	0.238	0.231	0.209	0.214	0.214	0.236	0.203
[1], arabinose 1714678 nM	0.213	0.221	0.208	0.232	0.223	0.253	0.198
[1], arabinose 3086420 nM	0.207	0.23	0.212	0.254	0.204	0.267	0.235
[1], arabinose 5555556 nM	0.189	0.214	0.206	0.198	0.201	0.218	0.232
[1], arabinose 10000000 nM	0.174	0.21	0.163	0.217	0.173	0.21	–
[2], arabinose 15560 nM	0.18	0.153	–	–	–	–	–
[2], arabinose 28008 nM	0.229	0.178	–	–	–	–	–
[2], arabinose 50414 nM	0.207	0.177	–	–	–	–	–
[2], arabinose 90744 nM	0.215	0.211	–	–	–	–	–
[2], arabinose 163340 nM	0.257	0.239	–	–	–	–	–
[2], arabinose 294012 nM	0.293	0.302	–	–	–	–	–
[2], arabinose 529221 nM	0.32	0.291	–	–	–	–	–
[2], arabinose 952599 nM	0.355	0.368	–	–	–	–	–
[2], arabinose 1714678 nM	0.336	0.387	–	–	–	–	–
[2], arabinose 3086420 nM	0.328	0.361	–	–	–	–	–
[2], arabinose 5555556 nM	0.321	0.333	–	–	–	–	–
[2], arabinose 10000000 nM	0.341	0.34	–	–	–	–	–

Nc1nc2ccc(OC(F)(F)F)cc2s1 [Riluzole] (TESEC target enzyme: Mtb Asd)
growth
Conditions	drug 1.7 µM	drug 3.9 µM	drug 8.7 µM	drug 19.5 µM	drug 43.9 µM	drug 98.8 µM	drug 222.2 µM
[1], arabinose 15560 nM	0.226	0.226	0.232	0.219	0.202	0.188	–
[1], arabinose 28008 nM	0.2085	0.207	0.219	0.223	0.208	0.197	–
[1], arabinose 50414 nM	0.234	0.217	0.222	0.235	0.207	0.202	–
[1], arabinose 90744 nM	0.232	0.243	0.222	0.286	0.22	0.205	–
[1], arabinose 163340 nM	0.227	0.236	0.232	0.237	0.217	0.216	–
[1], arabinose 294012 nM	0.229	0.227	0.2601	0.231	0.221	0.216	–
[1], arabinose 529221 nM	0.227	0.236	0.226	0.208	0.221	0.231	–
[1], arabinose 952599 nM	0.2317	0.226	0.263	0.207	0.233	0.235	0.123
[1], arabinose 1714678 nM	0.195	0.2	0.235	0.193	0.233	0.213	0.115
[1], arabinose 3086420 nM	0.148	0.149	0.183	0.214	0.236	0.231	0.122
[1], arabinose 5555556 nM	0.154	0.157	0.196	0.157	0.171	0.19	0.126
[1], arabinose 10000000 nM	0.148	0.165	0.146	0.21	0.162	0.202	–
[2], arabinose 15560 nM	0.165	0.155	–	–	–	–	–
[2], arabinose 28008 nM	0.133	0.157	–	–	–	–	–
[2], arabinose 50414 nM	0.166	0.157	–	–	–	–	–
[2], arabinose 90744 nM	0.192	0.171	–	–	–	–	–
[2], arabinose 163340 nM	0.22	0.199	–	–	–	–	–
[2], arabinose 294012 nM	0.261	0.239	–	–	–	–	–
[2], arabinose 529221 nM	0.271	0.263	–	–	–	–	–
[2], arabinose 952599 nM	0.28	0.312	–	–	–	–	–
[2], arabinose 1714678 nM	0.284	0.319	–	–	–	–	–
[2], arabinose 3086420 nM	0.246	0.237	–	–	–	–	–
[2], arabinose 5555556 nM	0.236	0.223	–	–	–	–	–
[2], arabinose 10000000 nM	0.215	0.224	–	–	–	–	–

N=C(N)c1ccc(OCCCCCOc2ccc(C(=N)N)cc2)cc1 [Pentamidine]
growth
Conditions	Efflux+	∆emrE	∆mdtI	∆mdtK	∆mdtM	∆tolC ∆entC	∆yeeO
drug 6.25 µM	0.978	0.879	1.003	0.814	0.809	0.996	0.845
drug 12.5 µM	0.894	0.8324	0.936	0.77	0.7967	0.854	0.833
drug 25 µM	0.88	0.826	0.89493	0.68	0.779	0.804	0.79
drug 50 µM	0.805	0.811	0.837	0.513	0.745	0.709	0.758
drug 100 µM	0.635	0.739	0.655	0.367	0.614	0.389	0.637
drug 200 µM	0.337	0.615	0.352	0.212	0.502	0.0928	0.34

CC/C(=C(/CC)c1ccc(O)cc1)c1ccc(O)cc1 [Diethylstilbestrol] (TESEC target enzyme: Mtb Asd)
growth
Conditions	drug 0.7 µM	drug 1.5 µM	drug 3.5 µM	drug 7.8 µM	drug 17.6 µM	drug 39.5 µM	drug 88.9 µM
[1], arabinose 15560 nM	0.278	0.244	0.211	0.134	0.106	0.077	–
[1], arabinose 28008 nM	0.283	0.225	0.192	0.208	0.109	0.0887	–
[1], arabinose 50414 nM	0.271	0.23	0.192	0.149	0.185	0.0973	–
[1], arabinose 90744 nM	0.282	0.238	0.205	0.155	0.0906	0.075	–
[1], arabinose 163340 nM	0.245	0.22	0.207	0.163	0.11	0.108	–
[1], arabinose 294012 nM	0.224	0.222	0.201	0.151	0.0517	0.0476	–
[1], arabinose 529221 nM	0.189	0.16	0.141	0.123	0.0936	0.139	–
[1], arabinose 952599 nM	0.139	0.112	0.103	0.132	0.0957	0.0506	0.108
[1], arabinose 1714678 nM	0.118	0.104	0.106	0.112	0.124	0.147	0.119
[1], arabinose 3086420 nM	0.119	0.108	0.114	0.103	0.0984	0.114	0.111
[1], arabinose 5555556 nM	0.128	0.112	0.119	0.119	0.0951	0.0913	0.0621
[1], arabinose 10000000 nM	0.122	0.118	0.1329	0.118	0.13	0.117	–
[2], arabinose 15560 nM	0.236	0.214	–	–	–	–	–
[2], arabinose 28008 nM	0.223	0.157	–	–	–	–	–
[2], arabinose 50414 nM	0.238	0.191	–	–	–	–	–
[2], arabinose 90744 nM	0.252	0.218	–	–	–	–	–
[2], arabinose 163340 nM	0.254	0.227	–	–	–	–	–
[2], arabinose 294012 nM	0.29	0.222	–	–	–	–	–
[2], arabinose 529221 nM	0.207	0.214	–	–	–	–	–
[2], arabinose 952599 nM	0.2	0.228	–	–	–	–	–
[2], arabinose 1714678 nM	0.2038	0.208	–	–	–	–	–
[2], arabinose 3086420 nM	0.177	0.202	–	–	–	–	–
[2], arabinose 5555556 nM	0.168	0.198	–	–	–	–	–
[2], arabinose 10000000 nM	0.174	0.184	–	–	–	–	–
